Assay results from US6204295A, “Antioxidant compounds” (Orion Corporation, priority 1996, dated 2001).
Where two headings read alike, the source gives them in different places.

Assays:
[1] = molecular target: T1, NADPH oxidase of the neutrophils (Homo sapiens, UniProt P04839); test: Inhibition of reactive oxygen production (oxidative burst) by PMA-activated neutrophils, luminol enhanced chemiluminescence; format: cell-based; conditions: for inhibition at 1000 µM: read-out: Inhibition of NADPH oxidase of the neutrophils at 1 mM
T1 construct: Neutrophils were isolated from 30 ml freshly drawn heparinized whole blood; endogenous in cells; host or cells: neutrophils isolated from freshly drawn heparinized whole blood
T1 sequence (P04839 2-570 limits assumed): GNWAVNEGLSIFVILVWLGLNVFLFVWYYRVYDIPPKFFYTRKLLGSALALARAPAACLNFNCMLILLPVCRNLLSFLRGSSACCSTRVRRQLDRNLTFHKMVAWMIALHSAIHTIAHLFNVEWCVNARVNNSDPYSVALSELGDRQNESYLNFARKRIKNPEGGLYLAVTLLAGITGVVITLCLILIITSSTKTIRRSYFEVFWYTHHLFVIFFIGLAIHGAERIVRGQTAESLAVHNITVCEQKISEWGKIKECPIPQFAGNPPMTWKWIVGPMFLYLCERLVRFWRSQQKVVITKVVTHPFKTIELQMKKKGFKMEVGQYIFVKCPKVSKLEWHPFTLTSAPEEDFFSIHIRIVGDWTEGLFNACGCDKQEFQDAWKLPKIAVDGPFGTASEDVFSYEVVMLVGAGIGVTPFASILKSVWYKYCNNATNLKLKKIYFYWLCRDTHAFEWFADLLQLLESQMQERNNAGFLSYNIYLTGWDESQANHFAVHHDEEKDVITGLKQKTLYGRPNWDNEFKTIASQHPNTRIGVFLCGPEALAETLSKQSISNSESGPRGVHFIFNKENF
T1 sequence (P13498 2-195 partner limits assumed): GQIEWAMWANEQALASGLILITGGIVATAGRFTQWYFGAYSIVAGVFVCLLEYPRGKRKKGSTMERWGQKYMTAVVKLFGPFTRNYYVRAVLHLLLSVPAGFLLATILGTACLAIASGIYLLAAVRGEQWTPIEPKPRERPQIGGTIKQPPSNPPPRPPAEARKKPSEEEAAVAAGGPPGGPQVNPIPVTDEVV
Method: Neutrophils were isolated from 30 ml freshly drawn heparinized whole blood, after dextran sedimentation of erythrocytes for 30 min. The leucocyte rich plasma was layered over an equal volume of Percoll (Sigma) and centrifuged at 400 g for 15 min. […] Neutrophils were washed with PBS (pH 7.1) and centrifuged at 200 g for 10 min. Cells were resuspended in fresh HBS (containing […], 0.4 g KCl, 0.06 g Na2 HPO4×2H2 O, 0.06 g KH2 PO4, 0.1 g MgSO4×7H2 O and 1 g glucose in 1000 ml of distilled water; pH adjusted to 7.4 by 7% NaHCO3) and counted before use.
One ml of cell suspension (final cell count 10^6 cells/ml) and the test compound was placed in cuvettes. Production of reactive oxygen by neutrophils ("oxidative burst") was stimulated by addition of phorbol-myristate-acetate (PMA; final concentration 2 μM). The luminol enhanced chemiluminescence was recorded.

[2] = test system: lipid peroxidation in rat liver microsomes; test: Inhibition of t-butylhydroperoxide-induced lipid peroxidation in rat liver microsomes (luminol chemiluminescence); format: biochemical, rat (Sprague-Dawley); conditions: for IC50: t-BuOOH, rat liver microsomes 1.5 μg protein/ml, pH 10.2, 33° C., about 45 min, read-out: IC50 values for the inhibition of microsomal lipid peroxidation, initiated by t-Butylhydroperoxide; for antioxidant potency in the t-BuOOH test compared with butylated hydroxyanisole: in words, versus butylated hydroxyanisole
Method: (§2) Adult male Sprague-Dawley rats were decapitated, and the liver was excised and chilled in ice-cold 0.25 M sucrose solution. A 20% (w/v) liver homogenate was prepared in the sucrose solution (0° C.) with a homogenizer. Microsomes were prepared from the postmitochondrial (12000×g for 10 min at 4° C.) supernatant fluid by centrifugation (105000×g for 10 min at 4° C.).
(§3) The antioxidant properties of the compounds were estimated by their potency to inhibit t-butylhydroperoxide (t-BuOOH) or ascorbate/ADP-FeCl3 -induced lipid peroxidation in rat liver microsomes in vitro. In the t-BuOOH assay the buffer (50 mM sodium carbonate, pH 10.2, with 0.1 mM EDTA) was pipetted in a volume of 0.8 ml in the luminometer cuvette. 20 μl of diluted rat liver microsomes (final concentration 1.5 μg protein/ml) was added, followed by 6 μl of luminol (0.5 mg/ml) and test compounds. The reaction was initiated by 0.05 ml of 0.9 mM t-BuOOH at 33° C. The chemiluminescence was measured for about 45 min and the area under the curve was calculated. In the ascorbate/ADP-FeCl3 assay microsomes (final concentration 1.2 mg protein/ml) in 20 mM phosphate buffer, including 90 mM KCl, were incubated for 20 min at 37° C. in the presence of ascorbate (0.5 mM final concentration; pH of the buffer 6.0), ADP and FeCl3 (final concentrations 0.85 and 0.05 mM, respectively) and test compounds. Total incubation volume was 0.5 ml. The incubation was stopped by addition of 0.5 ml of 30% trichloroacetic acid plus 0.05 ml 2% butylated hydroxytoluene in ethanol. The extent of lipid peroxidation was estimated by the amount of thiobarbituric acid (TBA) reactive material formed.
(§4) IC50 value means concentration of test compound that inhibits lipid peroxidation by 50%.

[3] = test system: lipid peroxidation in rat liver microsomes; test: Inhibition of ascorbate/ADP-FeCl3-induced lipid peroxidation in rat liver microsomes (TBA reactive material); format: biochemical, rat (Sprague-Dawley); conditions: rat liver microsomes 1.2 mg protein/ml, pH 6.0, 20 min at 37° C., read-out: IC50 values for the inhibition of microsomal lipid peroxidation, initiated by Ascorbate/ADP-FeCl3
Method: as §2, §3, §4

[4] = test system: serum lipid peroxides (TBA-reactive material); test: In vivo serum lipid peroxides, TBA-reactive material; set-up: species or system rat (female Sprague-Dawley); conditions: rats; daily oral gavage 12 and 48 mg/kg; 2 days to 12 months; FIG. 2
Method: (§1) Test compound was given to six-week old female Sprague-Dawley rats daily by oral gavage at doses of 12 and 48 mg/kg for 12 months. The vehicle, carboxymethyl cellulose (0.5%), was given to control animals. Five rats per dose group were killed after 2 days, 5 weeks, 3, 6 and 12 months of dosing. Further groups were allowed to recover for 13 weeks without treatment after 6 and 12 months' dosing. The serum levels of lipid peroxides were measured by two different methods (diene conjugation and TBA-reactive material). For the measurement of diene conjugation, lipids extracted from serum samples (100 μl) by chloroform/methanol (2:1), dried under nitrogen and redissolved in cyclohexane, were analyzed spectrophotometrically (at 234 nm). For the analysis of TBA-reactive material serum samples (100 μl) were diluted in phosphate buffer and heated together with a TBA solution ([…]) in a boiling water bath for 15 min. The tubes were cooled, and the absorbances measured at 535 nm.

[5] = test system: serum lipid peroxides (diene conjugation); test: In vivo serum lipid peroxides, diene conjugation; set-up: species or system rat (female Sprague-Dawley); conditions: rats; daily oral gavage 12 and 48 mg/kg; 2 days to 12 months; FIG. 1
Method: as §1

[6] = PMA 2 μM, 10^6 cells/ml, read-out: IC50, inhibition of NADPH oxidase of the neutrophils

Row | Structure (SMILES) | inhibition at 1000 µM ([1]; 1 mM, PMA 2 μM, 10^6 cells/ml) [%] | IC50 [2] [µM] | IC50 [3] [µM] | other results
1 | COc1ccc(O)c(C(C)(C)C)c1 [butylated hydroxyanisole] | – | 1.1 | 0.2 | –
2 | CC/C(=C(/CC)c1ccc(O)cc1)c1ccc(O)cc1 [diethylstilbestrol] | – | – | – | IC50 [1]: 8 µM; inhibition at 1000 µM [1]: > 99%
3 | CN(C)CCOc1ccc(/C(=C(\CCCl)c2ccccc2)c2ccccc2)cc1 [Compound 5, 4-chloro-1,2-diphenyl-1-[4-[2-(N,N-dimethylamino)ethoxy]phenyl]-1-butene] | – | 410 | 36 | –
4 | CN(C)CCOc1ccc(/C(=C(/CCCl)c2ccccc2)c2ccccc2)cc1 [Compound 1, 4-chloro-1,2-diphenyl-1-[4-[2-(N,N-dimethylamino)ethoxy]phenyl]-1-butene] | – | 450 | 18 | IC50 [1]: 2.17 µM; inhibition at 1000 µM [1]: > 99%; effect on serum TBA-reactive material [4]: effective in decreasing both diene conjugation and TBA-reactive material in rats; effect on serum diene conjugation [5]: effective in decreasing both diene conjugation and TBA-reactive material in rats
5 | CN(C)CCOc1ccc(/C(=C(/CCI)c2ccccc2)c2ccccc2)cc1 [Compound 4, 4-iodo-1,2-diphenyl-1-[4-[2-(N,N-dimethylamino)ethoxy]phenyl]-1-butene] | > 99 | 0.38 | 3 | antioxidant potency in the t-BuOOH test compared with butylated hydroxyanisole [2]: even stronger than that of the known synthetic antioxidant butylated hydroxyanisole; IC50 [1, 6]: 2.32 µM

More lines, main results first:

Row | inhibition at 1000 µM ([1]; 1 mM, PMA 2 μM, 10^6 cells/ml) [%] | IC50 [2] [µM] | IC50 [3] [µM] | Structure (SMILES) | other results
6 | 59 | – | – | Cc1c(C)c2c(c(C)c1O)CCC(C)(C(=O)O)O2 (stereo not shown) [Trolox] | Inhibition of NADPH oxidase of the neutrophils at 1 mM ([1]; 1 mM, PMA 2 μM, 10^6 cells/ml): no effect
7 | – | 27 | 31 | CNCCOc1ccc(/C(=C(/CCCl)c2ccccc2)c2ccc(O)cc2)cc1 [Compound 3, 4-chloro-1-(4-hydroxyphenyl)-1-[4-[2-(N-methylamino)ethoxy]phenyl]-2-phenyl-1-butene] | –
8 | – | 4.6 | 300 | C[C@]12CC[C@@H]3c4ccc(O)cc4CC[C@H]3[C@@H]1CC[C@@H]2O [17β-estradiol] | Inhibition of NADPH oxidase of the neutrophils at 1 mM ([1]; 1 mM, PMA 2 μM, 10^6 cells/ml): no effect
9 | > 99 | 0.18 | 8 | CN(C)CCOc1ccc(/C(=C(/CCCl)c2ccccc2)c2ccc(O)cc2)cc1 [Compound 2, 4-chloro-1-(4-hydroxyphenyl)-1-[4-[2-(N,N-dimethylamino)ethoxy]phenyl]-2-phenyl-1-butene] | antioxidant potency in the t-BuOOH test compared with butylated hydroxyanisole [2]: even stronger than that of the known synthetic antioxidant butylated hydroxyanisole; IC50 [1, 6]: 2.12 µM
10 | – | 2 | 43 | Cc1c(C)c2c(c(C)c1O)CCC(C)(CCCC(C)CCCC(C)CCCC(C)C)O2 (stereo not drawn) [α-tocopherol] | –
